Results reported in article PMC5845537 (Frontiers in Pharmacology, 2018).

How the values were obtained:
C57BL/6NCrlBr mice = experiment: Mouse object placement (OP) task after subchronic PCP; type: in vivo
Description: Subchronic PCP treatment: The subPCP administration regimen used in rats was conducted as described in ([Goetghebeur and Dias, 2009]), which is a reliable method for inducing deficits in our hands. Rats in the subPCP experiments received injections of 5 mg/mL PCP or vehicle (saline) s.c. at a 1 mL/kg injection volume twice per day for 7 days. […] The mouse subPCP regimen was conducted as described in [Pedersen et al. (2014)]. Briefly, mice received vehicle or PCP (1.3 mg/mL concentration, 10 mL/kg injection volume) s.c once per day for 14 days followed by a 7-day washout prior to experimentation.
Object placement and OR tasks in mice were executed in Perspex boxes measuring 40 × 40 cm with dark gray walls and a white floor. The tests were conducted during the light phase, yet in a subdued light (≈20 lux) and with the radio turned on in the background. Each trial was recorder by a camera mounted above the test arenas and later scored manually.
Objects in the mouse OP task consisted of small stork sculptures made of plaster, which were 11.5 cm in height, with a roughly rectangle-shaped base 7.5 cm in length and 4.8 cm in width. For the mouse OR task, objects consisted of (1) small cylindrical pepper mills (purchased empty, having never contained spice) made of clear plastic (10.5 cm in height, 4.5 cm diameter), and (2) small salt shakers made of light blue glass (again, purchased empty; 11.5 cm in height, 4.5 cm diameter). […]
The primary dependent measure for the OR and object placement tasks was a novel object or novel placement preference score, which were calculated from raw object investigation times using the following equation: Preference Score = ITN/(ITN + ITF)^∗100, where ITN represents the investigation time for the novel object or placement, and ITF represents the investigation for the familiar object or placement. Total exploration times from the information and test trials were analyzed for OP and OR experiments. Preference score and total exploration time data was analyzed for treatment group differences using a one-way between-subjects ANOVA. […]

GABAA receptor = experiment: Ex vivo autoradiography, GABAA receptor saturation binding ([3H]muscimol), medial prefrontal cortex; design: species or system rat; settings: PCP/vortioxetine group vs all other treatment groups
From the text: Rats used in ex vivo autoradiography (EVA) experiments were randomly assigned to one of four experimental groups characterized by either subchronic saline or PCP (as described above) along with either vehicle or vortioxetine-infused food (1.8 g vortioxetine/kg food weight, as described in the attentional set shifting task). On day 8 of PCP withdrawal, rats were anesthetized using CO2 and killed by decapitation. Brains were quickly and gently removed from the skull, flash frozen on powdered dry ice, and stored at -20°C until sectioning. Later, 12 μm coronal sections were collected from an area ranging from approximately +4.2 mm to +2.3 mm anterior to Bregma ([Paxinos and Watson, 1998]) using a cryostat (MicroM, Germany) and were thaw-mounted on glass microscope slides. This range of coronal slices was chosen in order to study the prelimbic and infralimbic subregions of the medial prefrontal cortex, given the importance of these regions in tests of executive function such as the attentional set shifting task ([Ng et al., 2007]). After the tissue mounted on the microscope slides had dried thoroughly (in order to reduce damage from freezing), slides were packed into slide boxes with desiccator pellets, and stored at -20°C for use in EVA saturation binding and competition experiments.
Each of the EVA procedures used in this study are variations on a similar theme. On the day of an experiment, slide-boxes were defrosted under a constant stream of air at room temperature until the boxes were dry and equilibrated with the environment in terms of temperature. This step was undertaken in order to ensure brain tissue was not damaged by frosting due to a sudden change in humidity. Prior to any binding experiments, slides were preincubated in the appropriate preincubation buffer and dried at room temperature. Subsequently, tissue was incubated in an assay buffer containing a radioligand appropriate for the receptor of interest, then rinsed in assay buffer, and dried overnight in a vacuum desiccator. Specific information on the contents of the preincubation buffers, assay buffers and other assay conditions are listed in Table 2. Finally, slides were opposed to a tritium-sensitive phosphor screen (Fuji imaging plate, GE Healthcare, Pittsburgh, PA, United States) for 5 days before being read in a phosphorimager (Typhoon FLA7000, GE Healthcare). Analysis methods are listed below under statistical analyses.
In saturation binding experiments, the concentration of the relevant radioligand in the assay buffer was systematically varied in order to determine the KD and Bmax of the receptor in question. At each radioligand concentration, the non-specific binding was determined on a separate slide by including a high concentration of a non-radioactive competitor ligand in the assay buffer along with the radioligand. For GABAA receptor saturation binding experiments, [^3H]muscimol was examined in quarter log steps ranging from 0.56 to 300 nM. For GABAB receptor saturation binding experiments, [^3H]CGP54626 was examined in quarter log steps ranging from 0.17 to 100 nM.
For saturation binding studies, the primary dependent measures were pKD and Bmax. […] A linear regression was performed to determine the relationship between intensity and bound radioactivity (measured on the standards in units of μCi/g). […] These optical intensity values were transformed into bound radioactivity (expressed as nCi/mg) measurements by interpolation from the standard curve noted above. […]

| SMILES | novel placement preference score (C57BL/6NCrlBr mice; subPCP/vehicle vs vehicle/vehicle mice, p < 0.01) | effect of treatment on [3H]muscimol affinity for the GABAA receptor (GABAA receptor) | attenuation of subPCP-induced object placement task impairment (C57BL/6NCrlBr mice; subPCP-treated mice, 10 mg/kg s.c. bolus plus seven days 0.6 g/kg chow, p < 0.05) | object placement task performance vs vehicle/vehicle (C57BL/6NCrlBr mice; vortioxetine/vehicle group, mice without PCP) |
| --- | --- | --- | --- | --- |
| Cl.c1ccc(C2(N3CCCCC3)CCCCC2)cc1 [PCP, 1-(1-phenylcyclohexyl)-piperidine hydrochloride] | significantly reduced novel placement preference scores |  |  |  |
| Cc1ccc(Sc2ccccc2N2CCNCC2)c(C)c1 [vortioxetine] |  | small but significant reduction | significantly attenuated | did not perform significantly better |
